The source of these data is US20250154138A1, “Small Molecule IL-17A Modulators” (BeiGene, Ltd., priority 2022, published 2025).

Each structure is given as a SMILES string.

Test [1] has as its target human IL-17A / human IL-17RA (Homo sapiens (Human), UniProt Q16552). The test is described as follows: Human IL-17A biochemical assay (HTRF, blocking of IL-17A binding to IL-17RA). The conditions noted are these: 0.4 nM IL-17A, 0.3 nM IL-17RA, max compound concentration 10 uM. In a few lines: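 In this time-resolved fluorescence format, the cytokine (0.4 nM) is exposed to compound for 3 h before 0.3 nM receptor is added for 1 h, with all incubations at room temperature in HEPES buffer, pH 7.5. The 620/665 nm signal ratio gives percent inhibition, and IC50 is taken from a 4-parameter curve.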
In general terms: TR-FRET usually uses a lanthanide donor and a delayed reading to cut background.

Test [2] relates to IL-17-induced GROα secretion from HT-29 cells. The test is described as follows: GROα release assay in human colorectal adenocarcinoma epithelial cell (HT-29, ELISA). In kind it is cell-based. The conditions noted are these: Homo sapiens, HT-29, 48 h, 10 ng/mL IL-17A, highest concentration 10 μM, read-out: Cellular assay HT29 cell/CXCL1 IC50. Put shortly:
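IC50 values come from four-parameter fits of GROα levels, quantified by ELISA (450 nm, standard curve) in supernatants. Compounds, 4-fold serially diluted from 10 μM, were mixed 15 min with IL-17A (10 ng/mL final) before 48 h incubation with HT-29 cells at 37°C.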
On the technique in general: ELISA stands for enzyme-linked immunosorbent assay.

human IL-17A / human IL-17RA, sequence (Q16552 24-155): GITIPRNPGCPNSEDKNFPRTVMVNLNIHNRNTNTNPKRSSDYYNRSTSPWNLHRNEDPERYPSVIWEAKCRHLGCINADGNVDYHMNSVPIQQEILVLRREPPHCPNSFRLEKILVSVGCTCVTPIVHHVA

On to `CNC(=O)C1(N2C[C@@H](C(C)C)NC2=O)Cc2ccc(NC(=O)[C@@H](NC(=O)c3cccnc3)C3CCCCC3)cc2C1` (stereo partly drawn) [Example 58, N-((1S)-1-cyclohexyl-2-((2-((R)-4-isopropyl-2-oxoimidazolidin-1-yl)-2-(methylcarbamoyl)-2,3-dihydro-1H-inden-5-yl)amino)-2-oxoethyl)nicotinamide], for which the values for the IC50 in test [1] and in test [2] were 595 nM and 1440 nM, respectively.
In the case of `CNC(=O)C1(N2C[C@@H](C(C)C)NC2=O)Cc2ccc(NC(=O)[C@@H](NC(=O)c3ccnn3C(C)C)C3CCCCC3)cc2C1` (stereo partly drawn) [Example 59, N-((1S)-1-cyclohexyl-2-((2-((R)-4-isopropyl-2-oxoimidazolidin-1-yl)-2-(methylcarbamoyl)-2,3-dihydro-1H-inden-5-yl)amino)-2-oxoethyl)-1-isopropyl-1H-pyrazole-5-carboxamide], the IC50 in test [1] amounted to 93 nM; in test [2] it was 34.5 nM.
Regarding `CNC(=O)C1(N2C[C@@H](C(C)C)NC2=O)Cc2ccc(NC(=O)[C@@H](NC(=O)c3cnn(C)c3)C3CCCCC3)cc2C1` (stereo partly drawn) [Example 61, N-((1S)-1-cyclohexyl-2-((2-((R)-4-isopropyl-2-oxoimidazolidin-1-yl)-2-(methylcarbamoyl)-2,3-dihydro-1H-inden-5-yl)amino)-2-oxoethyl)-1-methyl-1H-pyrazole-4-carboxamide], the IC50 in test [1] is 857 nM; in test [2] it was 4960 nM.
Regarding `CNC(=O)C1(N2C[C@@H](Cc3ccc(C)cc3)NC2=O)Cc2ccc(NC(=O)[C@@H](NC(=O)c3ccnn3C)C3CCCCC3)cc2C1` (stereo partly drawn) [Example 62, N-((1S)-1-cyclohexyl-2-((2-((R)-4-(4-methylbenzyl)-2-oxoimidazolidin-1-yl)-2-(methylcarbamoyl)-2,3-dihydro-1H-inden-5-yl)amino)-2-oxoethyl)-1-methyl-1H-pyrazole-5-carboxamide], the IC50 was 24 nM in test [1] and 212 nM in test [2].
For `C#CCC1CN(C2(C(=O)NC)Cc3ccc(NC(=O)[C@@H](NC(=O)c4ccnn4C)C4CCCCC4)cc3C2)C(=O)N1` (stereo partly drawn) [Example 63, N-((1S)-1-cyclohexyl-2-((2-(methylcarbamoyl)-2-(2-oxo-4-(prop-2-yn-1-yl)imidazolidin-1-yl)-2,3-dihydro-1H-inden-5-yl)amino)-2-oxoethyl)-1-methyl-1H-pyrazole-5-carboxamide], in that order: 85 nM and 326 nM.
Regarding `CNC(=O)C1(N2CC(CC3CC3)NC2=O)Cc2ccc(NC(=O)[C@@H](NC(=O)c3ccnn3C)C3CCCCC3)cc2C1` (stereo partly drawn) [Example 65, N-((1S)-1-cyclohexyl-2-((2-(4-(cyclopropylmethyl)-2-oxoimidazolidin-1-yl)-2-(methylcarbamoyl)-2,3-dihydro-1H-inden-5-yl)amino)-2-oxoethyl)-1-methyl-1H-pyrazole-5-carboxamide], the IC50 in test [1] was found to be 713 nM; in test [2], 2030 nM.
In the case of `CNC(=O)C1(N2C[C@@H](C(C)C)NC2=O)Cc2ccc(NC(=O)[C@@H](NC(=O)c3ccnn3C)C3CCC(F)(F)CC3)cc2C1` (stereo partly drawn) [Example 67, N-((1S)-1-(4,4-difluorocyclohexyl)-2-((2-((R)-4-isopropyl-2-oxoimidazolidin-1-yl)-2-(methylcarbamoyl)-2,3-dihydro-1H-inden-5-yl)amino)-2-oxoethyl)-1-methyl-1H-pyrazole-5-carboxamide], the IC50 in test [1] was 70 nM; in test [2], 365 nM.
As to `CC(C)[C@@H]1CN(C2(C(=O)NCC(F)(F)F)Cc3ccc(NC(=O)[C@@H](NC(=O)c4ccnn4C)C4CCCCC4)cc3C2)C(=O)N1` (stereo partly drawn) [Example 68, N-((1S)-1-cyclohexyl-2-((2-((R)-4-isopropyl-2-oxoimidazolidin-1-yl)-2-((2,2,2-trifluoroethyl)carbamoyl)-2,3-dihydro-1H-inden-5-yl)amino)-2-oxoethyl)-1-methyl-1H-pyrazole-5-carboxamide], the IC50 in test [1] amounted to 30 nM; in test [2], 37 nM.
For the compound `CNC(=O)C1(N2C[C@@H](C(C)C)NC2=O)Cc2ccc(NC(=O)[C@@H](NC(=O)c3cccc(Cl)c3)C3CCCCC3)cc2C1` (stereo partly drawn) [Example 69, 5-((S)-2-(3-chlorobenzamido)-2-cyclohexylacetamido)-2-((R)-4-isopropyl-2-oxoimidazolidin-1-yl)-N-methyl-2,3-dihydro-1H-indene-2-carboxamide], the IC50 came to 120 nM in test [1] and 432 nM in test [2].
For `CNC(=O)C1(N2CC(C)(C)CNC2=O)Cc2ccc(NC(=O)[C@@H](NC(=O)c3ccnn3C)C3CCCCC3)cc2C1` (stereo partly drawn) [Example 70, N-((1S)-1-cyclohexyl-2-((2-(5,5-dimethyl-2-oxotetrahydropyrimidin-1(2H)-yl)-2-(methylcarbamoyl)-2,3-dihydro-1H-inden-5-yl)amino)-2-oxoethyl)-1-methyl-1H-pyrazole-5-carboxamide], in that order: 26 nM and 70.6 nM.
As for `CNC(=O)C1(N2C[C@@H](C(C)C)NC2=O)Cc2ccc(NC(=O)[C@@H](NC(=O)c3cccc(C)c3)C3CCCCC3)cc2C1` (stereo partly drawn) [Example 71, 5-((S)-2-cyclohexyl-2-(3-methylbenzamido)acetamido)-2-((R)-4-isopropyl-2-oxoimidazolidin-1-yl)-N-methyl-2,3-dihydro-1H-indene-2-carboxamide], the IC50 amounted to 21 nM in test [1] and 217 nM in test [2].
Turning to `CNC(=O)C1(N2CC(Cc3ccc(Cl)cc3)NC2=O)Cc2ccc(NC(=O)[C@@H](NC(=O)c3ccnn3C)C3CCCCC3)cc2C1` (stereo partly drawn) [Example 74, N-((1S)-2-((2-(4-(4-chlorobenzyl)-2-oxoimidazolidin-1-yl)-2-(methylcarbamoyl)-2,3-dihydro-1H-inden-5-yl)amino)-1-cyclohexyl-2-oxoethyl)-1-methyl-1H-pyrazole-5-carboxamide], the IC50 in test [1] was 32 nM; in test [2] it was 342 nM.
For `CCC1CNC(=O)N(C2(C(=O)NC)Cc3ccc(NC(=O)[C@@H](NC(=O)c4ccnn4C)C4CCCCC4)cc3C2)C1` (stereo partly drawn) [Example 75, N-((1S)-1-cyclohexyl-2-((2-(5-ethyl-2-oxotetrahydropyrimidin-1(2H)-yl)-2-(methylcarbamoyl)-2,3-dihydro-1H-inden-5-yl)amino)-2-oxoethyl)-1-methyl-1H-pyrazole-5-carboxamide], in that order: 33 nM and 186 nM.
As to `CNC(=O)C1(N2C[C@@H](Cc3ccc(F)cc3)NC2=O)Cc2ccc(NC(=O)[C@@H](NC(=O)c3ccnn3C)C3CCCCC3)cc2C1` (stereo partly drawn) [Example 76, N-((1S)-1-cyclohexyl-2-((2-((R)-4-(4-fluorobenzyl)-2-oxoimidazolidin-1-yl)-2-(methylcarbamoyl)-2,3-dihydro-1H-inden-5-yl)amino)-2-oxoethyl)-1-methyl-1H-pyrazole-5-carboxamide], the IC50 came to 90 nM in test [1] and 736 nM in test [2].
With `CNC(=O)C1(N2C[C@@H](C(C)C)NC2=O)Cc2ccc(NC(=O)[C@H](Cc3cc(-c4ccnc(C(C)(C)O)c4)ccc3Cl)NC(=O)c3ccnn3C)cc2C1` (stereo partly drawn) [Example 79, N-((2S)-3-(2-chloro-5-(2-(2-hydroxypropan-2-yl)pyridin-4-yl)phenyl)-1-((2-((R)-4-isopropyl-2-oxoimidazolidin-1-yl)-2-(methylcarbamoyl)-2,3-dihydro-1H-inden-5-yl)amino)-1-oxopropan-2-yl)-1-methyl-1H-pyrazole-5-carboxamide], the values for the IC50 in test [1] and in test [2] were 79 nM and 1300 nM, respectively.
